Test results from US6936623B2, “Pyrano[2,3-C]imidazo[-1,2-A]pyridine derivatives for the treatment of gastrointestinal disorders” (Altana Pharma AG, priority 2000, dated 2005).

System: pentagastrin-stimulated acid secretion of the perfused rat stomach
Details: perfused rat stomach in vivo, dose 1 μmol/kg i.v.
Method: The pH (pH meter 632, glass electrode EA 147; φ=5 mm, Metrohm) and, by titration with a freshly prepared 0.01 N NaOH solution to pH 7 (Dosimat 665 Metrohm), the secreted HCl were determined in the effluent in each case collected at an interval of 15 minutes.
The gastric secretion was stimulated by continuous infusion of 1 μg/kg (=1.65 ml/h) of i.v. pentagastrin (left femoral vein) about 30 min after the end of the operation (i.e. after determination of 2 preliminary fractions).
The body temperature of the animals was kept at a constant 37.8-38° C. by infrared irradiation and heat pads (automatic, stepless control by means of a rectal temperature sensor).

Row | Structure (SMILES) | Inhibition of acid secretion [%]
1 | CCO[C@@H]1c2ccn3c(C)c(C)nc3c2O[C@H](c2ccccc2)[C@@H]1O [Example 3, (7R,8R,9R)-2,3-Dimethyl-8-hydroxy-7-ethoxy-9-phenyl-7H-8,9-dihydro-pyrano[2,3-c]imidazo-[1,2-a]pyridine] | 100
2 | COCCO[C@@H]1c2ccn3c(C)c(C)nc3c2O[C@H](c2ccccc2)[C@@H]1O [Example 1, (7R,8R,9R)-2,3-Dimethyl-8-hydroxy-7-(2-methoxyethoxy)-9-phenyl-7H-8,9-dihydro-pyrano-[2,3-c]imidazo[1,2-a]pyridine] | 100
